Test results as given in the supplement of paper PMC9673313.

Each test system was assayed with Clc1ccc2c(N3CCN(CCCN4CCN(c5ccnc6cc(Cl)ccc56)CC4)CC3)ccnc2c1 [piperaquine].
Experimental: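 Kenyan Plasmodium falciparum field isolates (2008-2021) were tested in a SYBR Green I growth-inhibition assay, either immediately ex vivo (fresh samples) or in vitro after culture adaptation. Cultures were at 1% parasitemia and 2% hematocrit, incubated with serial drug dilutions for 72 h at 37 °C (5% O2, 5% CO2), then read by fluorescence. IC50 was fitted by non-linear regression of the dose-response curve.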

Test System	IC50 growth inhibition
601-006	0.016 µg/mL
601-0018	0.00948 µg/mL
601-0023	0.0124 µg/mL
601-0031	0.0161 µg/mL
601-0132	0.0171 µg/mL
601-0140	0.0251 µg/mL
601-0154	0.0252 µg/mL
601-0157	0.0068 µg/mL
601-0163	0.022 µg/mL
601-0186	0.0596 µg/mL
601-0189	0.0275 µg/mL
601-209	0.0646 µg/mL
601-226	0.0572 µg/mL
601-239	0.0156 µg/mL
601-257	0.112 µg/mL
601-0260	2.46 µg/mL
601-262	0.112 µg/mL
601-272	0.0205 µg/mL
601-0284	0.0176 µg/mL
601-292	0.0322 µg/mL
KCH19/06/0013	0.0146 µg/mL
KCH 10/04/099	0.517 µg/mL
KCH 10/05/108	0.0451 µg/mL
KCH 10/05/113	0.00858 µg/mL

Test System	IC50 growth inhibition
KCH 10/05/0116	0.00881 µg/mL
KCH 10/06/119	0.0127 µg/mL
KCH 10/06/120	0.163 µg/mL
KCH 10/06/0122	0.069 µg/mL
KCH 11/04/143	0.0205 µg/mL
KCH 11/05/145	0.012 µg/mL
KCH 13/1/192	0.0674 µg/mL
KCH 13/9/226	0.0268 µg/mL
KCH 14/03/247	0.0132 µg/mL
KCH 14/10/281	0.00857 µg/mL
KCH 14/10/283	0.00595 µg/mL
KCH 15/05/310	0.0734 µg/mL
KCH 15/06/316	0.0313 µg/mL
KCH 15/09/334	0.00243 µg/mL
KCH 15/10/339	0.00252 µg/mL
KCH 16/05/361	0.00583 µg/mL
KCH 16/07/365	0.0312 µg/mL
KCH 16/08 369	0.00323 µg/mL
KCH 17/09/372	0.00845 µg/mL
KCH 17/09/373	0.00701 µg/mL
KCH 17/09/374	0.00492 µg/mL
KCH 18/07/0001	0.0158 µg/mL
KCH 18/09/0003	0.0047 µg/mL
KCH 19/04/0010	0.00314 µg/mL

Test System	IC50 growth inhibition
KDH 10/02/0354	0.016 µg/mL
KDH 10/11/521	0.03 µg/mL
KDH 10/12/535	0.0114 µg/mL
KDH 11/9/709	0.55 µg/mL
KDH 11/10/728	0.105 µg/mL
KDH 11/10/733	5.01 µg/mL
KDH 12/10/909	0.00983 µg/mL
KDH 12/10/918	0.0132 µg/mL
KDH 12/11/923	0.0145 µg/mL
KDH 12/11/928	0.00444 µg/mL
KDH 13/09/1180	0.00678 µg/mL
KDH 14/03/1351	0.0107 µg/mL
KDH 14/05/1379	0.0283 µg/mL
KDH 14/05/1396	0.0267 µg/mL
KDH 14/05/1397	0.0137 µg/mL
KDH 14/05/1400	0.027 µg/mL
KDH 14/05/1402	0.0119 µg/mL
KDH 15/01/1569	0.00462 µg/mL
KDH 15/04/1616	0.028 µg/mL
KDH 15/04/1619	0.0223 µg/mL
KDH 15/06/1657	0.00996 µg/mL
KDH 15/06/1658	0.0205 µg/mL
KDH 15/06/1659	0.0165 µg/mL
KDH 16/07/1821	0.0191 µg/mL

Test System	IC50 growth inhibition
KDH 16/07/1823	0.0202 µg/mL
KDH 16/07/1824	0.0512 µg/mL
KDH 16/07/1826	0.0257 µg/mL
KDH 16/07/1828	0.0285 µg/mL
KDH 16/07/1829	0.00272 µg/mL
KDH 16/07/1830	0.00694 µg/mL
KDH 16/07/1831	0.0278 µg/mL
KDH 16/07/1832	0.00427 µg/mL
KDH 18/07/0001	0.00119 µg/mL
KDH 18/07/0010	0.0227 µg/mL
KDH 19/02/0077	0.017 µg/mL
KDH 19/07/0120	0.00745 µg/mL
KDH 19/12/0155	0.0208 µg/mL
KDH 19/12/0156	0.0196 µg/mL
KDH 19/12/0157	0.0175 µg/mL
KDH 20/01/0159	0.0288 µg/mL
KDH 20/01/0163	0.0245 µg/mL
KDH 20/01/0166	0.0768 µg/mL
KDH 21/02/0166	0.0768 µg/mL
KDH 21/02/0167	0.0233 µg/mL
KDH 21/02/0170	0.0523 µg/mL
KDH 21/02/0173	0.0368 µg/mL
KDH 21/02/0197	0.0184 µg/mL
KDH 21/02/0198	0.0345 µg/mL

Test System	IC50 growth inhibition
KDH 21/04/0218	0.003 µg/mL
KDH 21/05/0220	0.0025 µg/mL
KDH 21/05/0225	0.0071 µg/mL
KDH 21/05/0230	0.127 µg/mL
KDH 21/08/0250	0.0617 µg/mL
KDH 21/08/0254	0.0379 µg/mL
KOM 13/07/0006	0.0108 µg/mL
KOM 13/07/0007	0.00616 µg/mL
KOM 13/07/009	0.0226 µg/mL
KOM 13/07/0010	0.00114 µg/mL
KOM 13/08/0025	0.0147 µg/mL
KOM 13/08/0034	0.0232 µg/mL
KOM 13/09/0051	0.0206 µg/mL
KOM 13/10/0073 D28/0	0.015 µg/mL
KOM 13/10/0089	0.0186 µg/mL
KOM 13/11/104	0.0175 µg/mL
KOM 13/11/116	0.0287 µg/mL
KOM 14/03/169	0.015 µg/mL
KOM 14/03/189	0.018 µg/mL
KOM 14/04/215	0.0255 µg/mL
KOM 14/04/222	0.0193 µg/mL
KOM 14/06/270	0.0171 µg/mL
KOM 14/09/317	0.0159 µg/mL
KOM 15/03/383	0.00453 µg/mL

Test System	IC50 growth inhibition
KOM 15/04/398	0.00975 µg/mL
KOM 15/05/416	0.00162 µg/mL
KOM 15/05/417	0.00145 µg/mL
KOM 15/05/421 D42	0.0404 µg/mL
KOM 16/07/0609	0.0181 µg/mL
KOM 16/07/0610	0.00766 µg/mL
KOM 16/07/0611	0.0143 µg/mL
KOM 16/07/0616	0.0305 µg/mL
KOM 16/07/0620	0.0115 µg/mL
KOM 16/08/0627	0.0067 µg/mL
KOM 18/07/0004	0.0101 µg/mL
KOM 18/07/0005	0.00889 µg/mL
KOM 18/11/0045	0.00771 µg/mL
KOM 19/01/0053	0.0191 µg/mL
KOM 19/11/0147	0.0105 µg/mL
KOM 19/12/0149	0.0283 µg/mL
KOM 19/12/0150	0.00909 µg/mL
KOM 19/12/151	0.0169 µg/mL
KOM 19/12/155	0.0208 µg/mL
KOM 19/12/0166	0.0355 µg/mL
KOM 20/01/0165	0.0111 µg/mL
KOM 20/01/0168	0.0157 µg/mL
KOM 20/01/0172	0.0184 µg/mL
KOM 20/01/0174	0.062 µg/mL

Test System	IC50 growth inhibition
KOM 20/02/0178	0.00832 µg/mL
KOM 20/02/0179	0.0157 µg/mL
KOM 20/03/0184	0.0308 µg/mL
KOM 21/02/0228	0.0626 µg/mL
KOM 21/02/0237	0.001 µg/mL
KOM 21/03/0202	0.003 µg/mL
KOM 21/03/0254	0.0021 µg/mL
KOM 21/03/0256	0.0026 µg/mL
KOM 21/03/267	0.0023 µg/mL
KOM 21/03/0292	0.0137 µg/mL
KOM 21/04/0219	0.0227 µg/mL
KOM 21/05/0262	0.0794 µg/mL
KOM 21/05/0265	0.0027 µg/mL
KOM 21/05/0271	0.0021 µg/mL
KOM 21/05/0272	0.0037 µg/mL
KOM 21/05/0277	0.0353 µg/mL
KOM 21/05/0278	0.0027 µg/mL
KOM 21/05/0280	0.0013 µg/mL
KOM 21/08/0327	0.0283 µg/mL
KOM 21/08/0340	0.0382 µg/mL
KOM 21/08/0344	0.0249 µg/mL
KOM 21/08/0353	0.0415 µg/mL
KSI 9/06/0001	0.504 µg/mL
KSI 10/09/096	0.0116 µg/mL

Test System	IC50 growth inhibition
KSI 10/09/099	0.0338 µg/mL
KSI 10/09/106	0.201 µg/mL
KSI 10/9/111	0.284 µg/mL
KSI 10/11/118	0.0157 µg/mL
KSI 12/01/224	0.0193 µg/mL
KSI 12/06/270	0.0175 µg/mL
KSI 12/08/285	0.0196 µg/mL
KSI 12/12/304	0.0244 µg/mL
KSI 13/1/307	0.041 µg/mL
KSI 13/3/323	0.0287 µg/mL
KSI 13/04/334	0.0195 µg/mL
KSI 13/05/346	0.0502 µg/mL
KSI 13/06/360	0.00681 µg/mL
KSI 13/10/422	0.0199 µg/mL
KSI 13/10/430	0.00784 µg/mL
KSI 14/01/474	0.016 µg/mL
KSI 14/02/488	0.0157 µg/mL
KSI 14/03/504	0.013 µg/mL
KSI 14/03/506	0.0128 µg/mL
